Experimental data reported in publication PMC8652005 (2021).

Experiments:
[1] = system: add_P1 (RNA, riboswitch) GGGAAGAUAUAAUCCUAAUGAUAUGGUUUGGGAGUUUCUACCAAGAGCCUUAAACUCUUGAUUAUCUUCUCUGUCGCUUUAUCCCAAAUUUUAUAAAGAGAAGACUCAUGAAU; test: ITC; conditions: 100 mM KCl, 10 mM MgCl2; 10 mM HEPES, pH 7.5, room temperature
[2] = system: add_FL (RNA, riboswitch) GGGAAGAAACGCUUCAUAUAAUCCUAAUGAUAUGGUUUGGGAGUUUCUACCAAGAGCCUUAAACUCUUGAUUAUGAAGUCUGUCGCUUUAUCCCAAAUUUUAUAAAGAGAAGACUCAUGAAU; test: ITC; conditions: 100 mM KCl, 10 mM MgCl2; 10 mM HEPES, pH 7.5, room temperature

What does the source list for Nc1ncnc2[nH]cnc12?
Kd [1]: 67.6 ± 0.53 nM; Kd [2]: 90.0 ± 0.96 nM
